The target in assay [1] is T1, CAIX-expressing human HT-29 colorectal cancer cells (Homo sapiens, UniProt Q16790).
T1 construct: CAIX-expressing human HT-29 colorectal cancer cells; host or cells: HT-29 human colorectal cancer cells
Nature of the assay: FACS binding assay (IC50 determination, competition with tracer 3BP-2776 or 3BP-4149). As to conditions: FACS binding assay, HT-29 cells, 4° C., 1 hour, read-out: pIC50 category (activity) (converted). An outline of the steps:
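HT-29 cells in FACS buffer (PBS, 1% FCS) at 500.000 cells/ml were exposed to compounds competing with a labelled tracer, with biotinylated compounds detected by 1 μg/mL APC-streptavidin for 30 min on ice. APC/Cy5 median fluorescence was read by flow cytometry and IC50 derived by 4PL fit.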

For assay [2], the target named is T2, human carbonic anhydrase IX (hCAIX-Fc) (Homo sapiens, UniProt Q16790).
T2 construct: purchased SinoBliological (Sino Biological) 10107-H02H
Briefly: Surface plasmon resonance assay with hCAIX-Fc. The format is binding. As to conditions: 25° C.; for t1/2 category (activity): SPR dissociation half-life, hCAIX-Fc; for Kd: SPR, hCAIX-Fc captured, read-out: pKD category (activity) (converted). In general terms: Surface plasmon resonance follows binding to a sensor surface in real time, without labels.

[3] abbreviates: competition with tracer 3BP-2776 (10 nM, biotin-labeled).
Where [4] appears, read: competition with tracer 3BP-4149 (3 nM, Cy5-labeled).

Molecules are shown by their SMILES. Like-named read-outs stand apart in the source and are kept apart here. Starred links: 1 amine or outer side, 2 acyl side, 3 side chain; linkers in the order of their positions; H or OH if unused. Positions of bridges follow the written chain, without caps; N, C: chain ends. Non-standard residues stand in square brackets, D forms with d. Residues, ends and D or L forms follow the SMILES beside them. ξ: configuration not given here. *: point of attachment. DOTA = O=C(O)CN1CCN(CC(=O)O)CCN(CC(=O)*)CCN(CC(=O)O)CC1; X22 = CC(C)CC(=O)Nc1cccc(C[C@H](N[*:1])C(=O)[*:2])c1; ξTrp(7-Me) = Cc1cccc2c(CC(N)C(=O)O)c[nH]c12; ξTrp(1-Me) = Cn1cc(CC(N)C(=O)O)c2ccccc21; mXylylene = c1cc(C[*:1])cc(C[*:2])c1; X12 = O=C(CC1CCN([*:1])CC1)[*:2]; X2 = O=C(CN1CCC(N[*:1])CC1)[*:2]; 3Amb = NCc1cccc(C(=O)O)c1; 4Amb = NCc1ccc(C(=O)O)cc1; Dap = NC[C@H](N)C(=O)O; Inp = O=C(O)C1CCNCC1; GABA = NCCCC(=O)O

Regarding `CC(C)C[C@@H]1NC(=O)C(Cc2cn(C)c3ccccc23)NC(=O)[C@H](CC(=O)O)NC(=O)[C@H]2CCCN2C(=O)[C@H](CCC(=O)O)NC(=O)[C@@H](NC(=O)[C@H](Cc2ccc(O)cc2)NC(=O)[C@@H](NC(=O)CN2CCC(NC(=O)CN3CCN(CC(=O)O)CCN(CC(=O)O)CCN(CC(=O)O)CC3)CC2)C(C)C)CSCc2cccc(c2)CSC[C@@H](C(N)=O)NC(=O)[C@H](CO)NC(=O)[C@H](Cc2c[nH]c3ccccc23)NC(=O)[C@H]([C@@H](C)O)NC1=O` (stereo partly drawn) [3BP-4144] ({DOTA}-[X2]VYCE[dP]D[ξTrp(1-Me)]LTWSC-NH2; linker 4-13 via mXylylene), the IC50 in assay [1] (setting [3]) is below 0.01 µM. In assay [2], the “t1/2 category (activity)” value was “B (t1/2 between 5.1 and 15.0 minutes)”; the Kd was below 0.01 µM.

As to `Cc1cccc2c(CC3NC(=O)[C@H](CC(=O)O)NC(=O)[C@H]4CCCN4C(=O)[C@H](CCC(=O)O)NC(=O)[C@@H](NC(=O)[C@H](Cc4ccc(O)cc4)NC(=O)[C@@H](NC(=O)CN4CCC(NC(=O)CN5CCN(CC(=O)O)CCN(CC(=O)O)CCN(CC(=O)O)CC5)CC4)C(C)C)CSCc4cccc(c4)CSC[C@@H](C(N)=O)NC(=O)[C@H](CO)NC(=O)[C@H](Cc4c[nH]c5ccccc45)NC(=O)[C@H]([C@@H](C)O)NC(=O)[C@H](CC(C)C)NC3=O)c[nH]c12` (stereo partly drawn) [3BP-4158] ({DOTA}-[X2]VYCE[dP]D[ξTrp(7-Me)]LTWSC-NH2; linker 4-13 via mXylylene), in assay [1] (setting [3]), the IC50 is below 0.01 µM. For the same compound, in assay [2], the “t1/2 category (activity)” value is “B (t1/2 between 5.1 and 15.0 minutes)”; the Kd was below 0.01 µM.

Turning to `CC(C)C[C@@H]1NC(=O)[C@H](Cc2c[nH]c3ccccc23)NC(=O)[C@H](CC(=O)O)NC(=O)[C@H]2CCCN2C(=O)[C@H](CCC(=O)O)NC(=O)[C@@H]2CSCc3cccc(c3)CSC[C@@H](C(N)=O)NC(=O)[C@H](CNC(=O)CC[C@H](NC(=O)[C@@H](NC(=O)CN3CCC(NC(=O)CN4CCN(CC(=O)O)CCN(CC(=O)O)CCN(CC(=O)O)CC4)CC3)C(C)C)C(=O)N2)NC(=O)[C@H](Cc2c[nH]c3ccccc23)NC(=O)[C@H]([C@@H](C)O)NC1=O` [3BP-4175] ({DOTA}-[X2]VECE[dP]DWLTW[Dap]C-NH2; lactam 3-12; linker 4-13 via mXylylene), the IC50 in assay [1] (setting [3]) is below 0.01 µM. Moreover, in assay [2], the “t1/2 category (activity)” value is listed as “A (t1/2>15.0 minutes)” and the Kd was below 0.01 µM.

On to `CC(C)C[C@@H]1NC(=O)[C@H](Cc2c[nH]c3ccccc23)NC(=O)[C@H](CC(=O)O)NC(=O)[C@H]2CCCN2C(=O)[C@H](CCC(=O)O)NC(=O)[C@@H]2CSCc3cccc(c3)CSC[C@@H](C(N)=O)NC(=O)[C@H](CC(=O)NC[C@H](NC(=O)[C@@H](NC(=O)CN3CCC(NC(=O)CN4CCN(CC(=O)O)CCN(CC(=O)O)CCN(CC(=O)O)CC4)CC3)C(C)C)C(=O)N2)NC(=O)[C@H](Cc2c[nH]c3ccccc23)NC(=O)[C@H]([C@@H](C)O)NC1=O` [3BP-4176] ({DOTA}-[X2]V[Dap]CE[dP]DWLTWDC-NH2; lactam 3-12; linker 4-13 via mXylylene), for which the IC50 in assay [1] (setting [3]) is below 0.01 µM. Also, in assay [2], the “t1/2 category (activity)” value was “C (t1/2 between 2.1 and 5.0 minutes)”; the Kd is below 0.01 µM.

Turning to `CC(C)CC(=O)Nc1cccc(C[C@@H]2NC(=O)[C@H](CC(=O)O)NC(=O)[C@H]3CCCN3C(=O)[C@H](CCC(=O)O)NC(=O)[C@@H](NC(=O)[C@H](Cc3ccc(O)cc3)NC(=O)[C@@H](NC(=O)CN3CCC(NC(=O)CN4CCN(CC(=O)O)CCN(CC(=O)O)CCN(CC(=O)O)CC4)CC3)C(C)C)CSCc3cccc(c3)CSC[C@@H](C(N)=O)NC(=O)[C@H](CO)NC(=O)[C@H](Cc3c[nH]c4ccccc34)NC(=O)[C@H]([C@@H](C)O)NC(=O)[C@H](CC(C)C)NC2=O)c1` [3BP-4236] ({DOTA}-[X2]VYCE[dP]D[X22]LTWSC-NH2; linker 4-13 via mXylylene), the IC50 in assay [1] (setting [3]) was below 0.01 µM. Besides, in assay [2], the “t1/2 category (activity)” value was “B (t1/2 between 5.1 and 15.0 minutes)”; the Kd was below 0.01 µM.

As to `CC(C)C[C@@H]1NC(=O)[C@H](Cc2c[nH]c3ccccc23)NC(=O)[C@H](CC(=O)O)NC(=O)[C@H]2CCCN2C(=O)[C@H](CCC(=O)O)NC(=O)[C@@H]2CSCc3cccc(c3)CSC[C@@H](C(N)=O)NC(=O)[C@H](CNC(=O)C[C@H](NC(=O)CN3CCC(NC(=O)CN4CCN(CC(=O)O)CCN(CC(=O)O)CCN(CC(=O)O)CC4)CC3)C(=O)N2)NC(=O)[C@H](Cc2c[nH]c3ccccc23)NC(=O)[C@H]([C@@H](C)O)NC1=O` [3BP-4254] ({DOTA}-[X2]DCE[dP]DWLTW[Dap]C-NH2; lactam 2-11; linker 3-12 via mXylylene), the IC50 in assay [1] (setting [3]) was below 0.01 µM. Further, in assay [2], the “t1/2 category (activity)” value is “C (t1/2 between 2.1 and 5.0 minutes)”; the Kd is below 0.01 µM.

Consider `CC(C)C[C@@H]1NC(=O)[C@H](Cc2c[nH]c3ccccc23)NC(=O)[C@H](CC(=O)O)NC(=O)[C@H]2CCCN2C(=O)[C@H](CCC(=O)O)NC(=O)[C@@H]2CSCc3cccc(c3)CSC[C@@H](C(N)=O)NC(=O)[C@H](CNC(=O)C[C@H](NC(=O)C3CCN(C(=O)CN4CCN(CC(=O)O)CCN(CC(=O)O)CCN(CC(=O)O)CC4)CC3)C(=O)N2)NC(=O)[C@H](Cc2c[nH]c3ccccc23)NC(=O)[C@H]([C@@H](C)O)NC1=O` [3BP-4256] ({DOTA-Inp}-DCE[dP]DWLTW[Dap]C-NH2; lactam 1-10; linker 2-11 via mXylylene), for which the IC50 in assay [1] (setting [3]) was below 0.01 µM. Besides, in assay [2], the “t1/2 category (activity)” value was “C (t1/2 between 2.1 and 5.0 minutes)”; the Kd is below 0.01 µM.

Consider `CC(C)C[C@@H]1NC(=O)[C@H](Cc2c[nH]c3ccccc23)NC(=O)[C@H](CC(=O)O)NC(=O)[C@H]2CCCN2C(=O)[C@H](CCC(=O)O)NC(=O)[C@@H]2CSCc3cccc(c3)CSC[C@@H](C(N)=O)NC(=O)[C@H](CNC(=O)C[C@H](NC(=O)CC3CCN(C(=O)CN4CCN(CC(=O)O)CCN(CC(=O)O)CCN(CC(=O)O)CC4)CC3)C(=O)N2)NC(=O)[C@H](Cc2c[nH]c3ccccc23)NC(=O)[C@H]([C@@H](C)O)NC1=O` [3BP-4259] ({DOTA}-[X12]DCE[dP]DWLTW[Dap]C-NH2; lactam 2-11; linker 3-12 via mXylylene), for which, in assay [1] (setting [3]), the IC50 is below 0.01 µM. For the same compound, in assay [2], the “t1/2 category (activity)” value is recorded as “D (t1/2≤2.0 minutes)” and the Kd is below 0.01 µM.

For `CC(C)C[C@@H]1NC(=O)[C@H](Cc2c[nH]c3ccccc23)NC(=O)[C@H](CC(=O)O)NC(=O)[C@H]2CCCN2C(=O)[C@H](CCC(=O)O)NC(=O)[C@@H]2CSCc3cccc(c3)CSC[C@@H](C(N)=O)NC(=O)[C@H](CNC(=O)C[C@H](NC(=O)c3cccc(CNC(=O)CN4CCN(CC(=O)O)CCN(CC(=O)O)CCN(CC(=O)O)CC4)c3)C(=O)N2)NC(=O)[C@H](Cc2c[nH]c3ccccc23)NC(=O)[C@H]([C@@H](C)O)NC1=O` [3BP-4260] ({DOTA-3Amb}-DCE[dP]DWLTW[Dap]C-NH2; lactam 1-10; linker 2-11 via mXylylene), the IC50 in assay [1] (setting [3]) was below 0.01 µM. In addition, in assay [2], the “t1/2 category (activity)” value is given as “D (t1/2≤2.0 minutes)” and the Kd is below 0.01 µM.

In the case of `CC(C)C[C@@H]1NC(=O)[C@H](Cc2c[nH]c3ccccc23)NC(=O)[C@H](CC(=O)O)NC(=O)[C@H]2CCCN2C(=O)[C@H](CCC(=O)O)NC(=O)[C@@H]2CSCc3cccc(c3)CSC[C@@H](C(N)=O)NC(=O)[C@H](CNC(=O)C[C@H](NC(=O)c3ccc(CNC(=O)CN4CCN(CC(=O)O)CCN(CC(=O)O)CCN(CC(=O)O)CC4)cc3)C(=O)N2)NC(=O)[C@H](Cc2c[nH]c3ccccc23)NC(=O)[C@H]([C@@H](C)O)NC1=O` [3BP-4261] ({DOTA-4Amb}-DCE[dP]DWLTW[Dap]C-NH2; lactam 1-10; linker 2-11 via mXylylene), in assay [1] (setting [3]), the IC50 is below 0.01 µM. Moreover, in assay [2], the “t1/2 category (activity)” value is “C (t1/2 between 2.1 and 5.0 minutes)”; the Kd was below 0.01 µM.

As for `CC(C)C[C@@H]1NC(=O)[C@H](Cc2c[nH]c3ccccc23)NC(=O)[C@H](CC(=O)O)NC(=O)[C@H]2CCCN2C(=O)[C@H](CCC(=O)O)NC(=O)[C@@H]2CSCc3cccc(c3)CSC[C@@H](C(N)=O)NC(=O)[C@H](CNC(=O)C[C@H](NC(=O)CCCNC(=O)CN3CCN(CC(=O)O)CCN(CC(=O)O)CCN(CC(=O)O)CC3)C(=O)N2)NC(=O)[C@H](Cc2c[nH]c3ccccc23)NC(=O)[C@H]([C@@H](C)O)NC1=O` [3BP-4263] ({DOTA-GABA}-DCE[dP]DWLTW[Dap]C-NH2; lactam 1-10; linker 2-11 via mXylylene), the IC50 in assay [1] (setting [4]) was below 0.01 µM. Besides, in assay [2], the “t1/2 category (activity)” value is “C (t1/2 between 2.1 and 5.0 minutes)”; the Kd was below 0.01 µM.

`CC(C)C[C@@H]1NC(=O)[C@H](Cc2cccc(NC(=O)C[C@@H]3NC(=O)CNC3=O)c2)NC(=O)[C@H](CC(=O)O)NC(=O)[C@H]2CCCN2C(=O)[C@H](CCC(=O)O)NC(=O)[C@@H](NC(=O)[C@H](Cc2ccc(O)cc2)NC(=O)[C@@H](NC(=O)CN2CCC(NC(=O)CN3CCN(CC(=O)O)CCN(CC(=O)O)CCN(CC(=O)O)CC3)CC2)C(C)C)CSCc2cccc(c2)CSC[C@@H](C(N)=O)NC(=O)[C@H](CO)NC(=O)[C@H](Cc2c[nH]c3ccccc23)NC(=O)[C@H]([C@@H](C)O)NC1=O` [3BP-4288]: in assay [1] (setting [4]), the IC50 was 0.1 to 0.794 µM. For the same compound, in assay [2], the “t1/2 category (activity)” value is recorded as “D (t1/2≤2.0 minutes)” and the Kd is 0.01 to 0.0794 µM.

Source of the values: patent US20250339569A1, “CARBONIC ANHYDRASE IX LIGANDS” (priority 2021, published 2025).
